Biological target: hTREM2 (Homo sapiens, UniProt Q9NZC2)
Assay: TREM2 activity by cellular Syk phosphorylation (AlphaScreen/AlphaLISA) in TREM2/DAP12-HEK cells, used for Examples 1-305
Type: cell-based
Parameters: expressed in transfected cells
Conditions: HEK293 Cells
Method in brief: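 Single-cell-cloned HEK293 cells overexpressing TREM2 and DAP12, seeded 20 h, exposed to test articles (1% final DMSO) for 45 min at room temperature. Lysates read for phospho-Syk (Tyr525/526) vs total Syk by AlphaScreen. Signal normalised as percent of control between isotype IgG and 100 nM anti-TREM2 antibody; 4-parameter logistic fit.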

Sequence of hTREM2 (Q9NZC2 19-230): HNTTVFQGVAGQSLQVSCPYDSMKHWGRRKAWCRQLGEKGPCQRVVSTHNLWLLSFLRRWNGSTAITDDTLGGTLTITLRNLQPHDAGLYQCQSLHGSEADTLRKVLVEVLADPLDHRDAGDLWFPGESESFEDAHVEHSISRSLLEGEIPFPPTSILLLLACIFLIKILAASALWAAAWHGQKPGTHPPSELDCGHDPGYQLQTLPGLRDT
Sequence of hTREM2 (O43914 22-113 partner): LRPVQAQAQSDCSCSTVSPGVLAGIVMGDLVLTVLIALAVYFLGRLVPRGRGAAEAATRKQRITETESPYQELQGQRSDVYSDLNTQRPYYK

| EC50 [nM] | hTREM2 Emax | SMILES |
| --- | --- | --- |
| ≤ 50 | +++ (Emax>150 and ≤250) | Cc1cc2c(nc(N3CCO[C@@H](c4cnn(C)c4)C3)nc2[C@H]2C[C@H](C(F)(F)F)C2)nc1C [Example 112, 6,7-dimethyl-2-((2S)-2-(1-methyl-1H-pyrazol-4-yl)-4-morpholinyl)-4-(trans-3-(trifluoromethyl)cyclobutyl)pyrido[2,3-d]pyrimidine] |
| 500 to 3000 | +++ (Emax>150 and ≤250) | Cc1ccc(-c2cc([C@@H]3CCO[C@H](c4cnn(C)c4)C3)nc3nc(C)c(C)nc23)c(F)c1 (single isomer, unassigned) [Example 189] |
| ≤ 50 | +++ (Emax>150 and ≤250) | Cc1ccc(-c2nc(N3CCO[C@@H](c4cnn(C5CC5)c4)C3)nc3nc(C)c(C)nc23)c(F)c1 [Example 38, 2-((2S)-2-(1-cyclopropyl-1H-pyrazol-4-yl)-4-morpholinyl)-4-(2-fluoro-4-methylphenyl)-6,7-dimethylpteridine] |
| 3000 to 100000 |  | Cc1nc2nc(N3CCO[C@@H](c4cnn(C)c4)C3)nc(N3CCCC(F)(F)C3)c2nc1C [Example 68, 4-(3,3-difluoro-1-piperidinyl)-6,7-dimethyl-2-((2S)-2-(1-methyl-1H-pyrazol-4-yl)-4-morpholinyl)pteridine] |
| 3000 to 100000 |  | CN1Cc2c(cc(N3CCO[C@@H](c4cnn(C)c4)C3)nc2[C@H]2C[C@@H](C(F)(F)F)C2)C1=O [Example 117, 2-methyl-6-((2S)-2-(1-methyl-1H-pyrazol-4-yl)-4-morpholinyl)-4-(cis-3-(trifluoromethyl)cyclobutyl)-2,3-dihydro-1H-pyrrolo[3,4-c]pyridin-1-one] |
| ≤ 50 | +++ (Emax>150 and ≤250) | Cc1cc([C@H]2CN(c3nc(C45CC(C(F)(F)F)(C4)C5)c4nc(C)c(C)nc4n3)CCO2)ccn1 [Example 65] |
| 500 to 3000 | ++++ (Emax>250) | Cc1nc2nc([C@@H]3CCO[C@@H](c4cnn(C)c4)C3)nc([C@H]3C[C@H](C(F)(F)F)C3)c2nc1C (single isomer, unassigned) [Example 204] |
| ≤ 50 | +++ (Emax>150 and ≤250) | Cc1ccc(-c2nc([C@H]3CCO[C@H](c4ccnc(C)c4)C3)nc3nc(C)c(C)nc23)c(F)c1 [Example 286, 4-(2-fluoro-4-methylphenyl)-6,7-dimethyl-2-((2S,4S)-2-(2-methylpyridin-4-yl)tetrahydro-2H-pyran-4-yl)pteridine] |
| 50 to 500 | ++++ (Emax>250) | Cc1cnc2c(-c3ccc(Cl)cc3F)nc([C@H]3CCO[C@@H](c4cnn(C)c4)C3)cc2n1 (single isomer, unassigned) [Example 191] |
| 500 to 3000 | +++ (Emax>150 and ≤250) | Cc1cc([C@H]2CN(c3nc4nc(C)cnc4c([C@H]4C[C@H](C(F)(F)F)C4)n3)CCO2)cnn1 [Example 279, (S)-4-(7-methyl-4-((1r,3S)-3-(trifluoromethyl)cyclobutyl)pteridin-2-yl)-2-(6-methylpyridazin-4-yl)morpholine] |
| 500 to 3000 | +++ (Emax>150 and ≤250) | Cc1nc2nc([C@@H]3CCO[C@@H](c4cnn(C)c4)C3)cc(-c3ccc(Cl)cc3F)c2nc1C [Example 249, 8-(4-chloro-2-fluorophenyl)-2,3-dimethyl-6-((2R,4R)-2-(1-methyl-1H-pyrazol-4-yl)tetrahydro-2H-pyran-4-yl)pyrido[2,3-b]pyrazine] |
| ≤ 50 | +++ (Emax>150 and ≤250) | Cc1ccc(-c2nc(N3CCO[C@@H](c4ccnc(C)c4)C3)nc3nc(C)c(C)nc23)c(F)c1 [Example 39, 4-(2-fluoro-4-methylphenyl)-6,7-dimethyl-2-((2S)-2-(2-methyl-4-pyridinyl)-4-morpholinyl)pteridine] |
| 50 to 500 | ++++ (Emax>250) | Cc1cc([C@H]2CN(c3cc4nc(C)ccc4c(-c4ccc(Cl)cc4F)n3)CCO2)ccn1 [Example 151, 5-(4-chloro-2-fluorophenyl)-2-methyl-7-((2S)-2-(2-methyl-4-pyridinyl)-4-morpholinyl)-1,6-naphthyridine] |
| ≤ 50 | +++ (Emax>150 and ≤250) | Cc1ccc(-c2nc(N3CCO[C@@H](c4cnn(C)c4)C3)nc3nc(C)c(C)nc23)c(F)c1 [Example 37, 4-(2-fluoro-4-methylphenyl)-6,7-dimethyl-2-((2S)-2-(1-methyl-1H-pyrazol-4-yl)-4-morpholinyl)pteridine] |
| ≤ 50 | ++++ (Emax>250) | Cc1cc([C@@H]2CN(c3nc(-c4ccc(Cl)cc4F)c4ccc(C)nc4n3)CCO2)cnn1 [Example 259, (R)-4-(4-(4-chloro-2-fluorophenyl)-7-methylpyrido[2,3-d]pyrimidin-2-yl)-2-(6-methylpyridazin-4-yl)morpholine] |
| 500 to 3000 | ++ (Emax>100 and ≤150) | Cn1cc([C@H]2CN(c3nc(-c4ccc(Cl)cc4F)c4ccc(Cl)nc4n3)CCO2)cn1 [Example 283, (S)-4-(7-chloro-4-(4-chloro-2-fluorophenyl)pyrido[2,3-d]pyrimidin-2-yl)-2-(1-methyl-1H-pyrazol-4-yl)morpholine] |

| EC50 [nM] | hTREM2 Emax | SMILES |
| --- | --- | --- |
| 500 to 3000 | +++ (Emax>150 and ≤250) | Cc1cnc2c(-c3ccc(Cl)cc3F)nc([C@@H]3CCO[C@H](c4cnn(C5CC5)c4)C3)nc2n1 [Example 270, 4-(4-chloro-2-fluorophenyl)-2-((2S,4R)-2-(1-cyclopropyl-1H-pyrazol-4-yl)tetrahydro-2H-pyran-4-yl)-7-methylpteridine] |
| ≤ 50 | +++ (Emax>150 and ≤250) | Cc1nc2nc(N3CCO[C@@H](c4cnn(C5CC5)c4)C3)nc(C3CCC(F)(F)CC3)c2nc1C [Example 138, 2-((2S)-2-(1-cyclopropyl-1H-pyrazol-4-yl)-4-morpholinyl)-4-(4,4-difluorocyclohexyl)-6,7-dimethylpteridine] |
| 50 to 500 | ++++ (Emax>250) | Cc1nc2cc([C@H]3C[C@@H](C)O[C@@H](c4cnn(C)c4)C3)nc(-c3ccc(Cl)cc3F)c2nc1C (single isomer, unassigned) [Example 230] |
| 50 to 500 | ++++ (Emax>250) | Cc1cc([C@H]2C[C@H](c3nc(-c4ccc(Cl)cc4F)c4ccc(C)nc4n3)CCO2)ccn1 (single isomer, unassigned) [Example 219] |
| ≤ 50 | +++ (Emax>150 and ≤250) | Cc1nc2nc(N3CCO[C@@H](c4cnn(C)c4)C3)nc(-c3ccc(F)c(F)c3)c2nc1C [Example 60, 4-(3,4-difluorophenyl)-6,7-dimethyl-2-((2S)-2-(1-methyl-1H-pyrazol-4-yl)-4-morpholinyl)pteridine] |
| 50 to 500 | +++ (Emax>150 and ≤250) | Cc1nc2nc([C@@H]3CCO[C@H](c4cnn(C5CC5)c4)C3)nc(-c3ccc(Cl)cc3F)c2nc1C (single isomer, unassigned) [Example 180] |
| ≤ 50 | ++++ (Emax>250) | Cc1nc2nc(N3CCO[C@@H](c4cnn(C)c4)C3)nc(-c3ccc(C(F)(F)F)cc3F)c2nc1C [Example 17, 4-(2-fluoro-4-(trifluoromethyl)phenyl)-6,7-dimethyl-2-((2S)-2-(1-methyl-1H-pyrazol-4-yl)-4-morpholinyl)pteridine] |
| 50 to 500 | ++++ (Emax>250) | Cc1nc2nc(N3CCO[C@H]([C@@H]4CCOC4)C3)nc(-c3ccc(F)cc3F)c2nc1C [Example 243, (R)-4-(4-(2,4-difluorophenyl)-6,7-dimethylpteridin-2-yl)-2-((R)-tetrahydrofuran-3-yl)morpholine] |
| 3000 to 100000 | +++ (Emax>150 and ≤250) | CCn1cc([C@H]2CN(c3cc4nc(C)ccc4c(-c4ccc(Cl)cc4F)n3)CCO2)cn1 [Example 239, (S)-4-(5-(4-chloro-2-fluorophenyl)-2-methyl-1,6-naphthyridin-7-yl)-2-(1-ethyl-1H-pyrazol-4-yl)morpholine] |
| 50 to 500 | +++ (Emax>150 and ≤250) | Cc1nc2nc(N3CCO[C@H]([C@@H]4CCOC4)C3)nc(-c3ccc(F)cc3F)c2nc1C (single isomer, unassigned) [Example 35] |
| 500 to 3000 |  | Cc1nc2nc(N3CCO[C@@H](c4cnn(C)c4)C3)nc(N3CCC(F)(F)CC3)c2nc1C [Example 66, 4-(4,4-difluoro-1-piperidinyl)-6,7-dimethyl-2-((2S)-2-(1-methyl-1H-pyrazol-4-yl)-4-morpholinyl)pteridine] |
| ≤ 50 | ++++ (Emax>250) | Cc1nc2nc(N3CCO[C@@H](c4cnn(C5CC5)c4)C3)nc(-c3ccc(Cl)cc3F)c2nc1C [Example 22, 4-(4-chloro-2-fluorophenyl)-2-((2S)-2-(1-cyclopropyl-1H-pyrazol-4-yl)-4-morpholinyl)-6,7-dimethylpteridine] |
| 50 to 500 | + (Emax>45 and ≤100) | Cc1nc2nc(N3CCO[C@@H](c4cnn(C)c4)C3)nc(N3CCC(C)(C)CC3)c2nc1C [Example 67, 4-(4,4-dimethyl-1-piperidinyl)-6,7-dimethyl-2-((2S)-2-(1-methyl-1H-pyrazol-4-yl)-4-morpholinyl)pteridine] |
| ≤ 50 | ++++ (Emax>250) | Cc1ncc([C@@H]2CN(c3nc(-c4ccc(Cl)cc4F)c4nc(C)c(C)nc4n3)CCO2)cn1 (single isomer, unassigned) [Example 25] |
| 3000 to 100000 | +++ (Emax>150 and ≤250) | Cc1cnc2c(-c3ccc(Cl)cc3F)nc([C@H]3CCO[C@H](c4cnn(C)c4)C3)cc2n1 [Example 246, 5-(4-chloro-2-fluorophenyl)-2-methyl-7-((2S,4S)-2-(1-methyl-1H-pyrazol-4-yl)tetrahydro-2H-pyran-4-yl)pyrido[3,4-b] pyrazine] |

| SMILES | EC50 [nM] | hTREM2 Emax |
| --- | --- | --- |
| Cc1cnc2c(-c3ccc(Cl)cc3F)nc(N3CCO[C@@H](c4cnn(C5COC5)c4)C3)cc2n1 [Example 129, 5-(4-chloro-2-fluorophenyl)-2-methyl-7((2S)-2-(1-(3-oxetanyl)-1H-pyrazol-4-yl)-4-morpholinyl) pyrido[3,4-b]pyrazine] | 50 to 500 | ++++ (Emax>250) |
